Assay results taken from the NIST ThermoML archive (doi:10.1021/je800747v).

Assay: xn = mol fraction of the nth substance listed
Details: 101 kPa, Liquid, Optical method

COCCOC [1,2-dimethoxyethane] + CCCCCCC
binary diffusion coefficient (276.64 K, x1 = 0): 5.24e-09 m2/s | binary diffusion coefficient (277.73 K, x1 = 0): 5.28e-09 m2/s | binary diffusion coefficient (281.59 K, x1 = 0): 5.31e-09 m2/s | binary diffusion coefficient (284.32 K, x1 = 0): 5.35e-09 m2/s | binary diffusion coefficient (287.28 K, x1 = 0): 5.4e-09 m2/s | binary diffusion coefficient (289.59 K, x1 = 0): 5.44e-09 m2/s | binary diffusion coefficient (292.83 K, x1 = 0): 5.51e-09 m2/s | binary diffusion coefficient (294.95 K, x1 = 0): 5.57e-09 m2/s | binary diffusion coefficient (296.37 K, x1 = 0): 5.63e-09 m2/s | binary diffusion coefficient (298.46 K, x1 = 0): 5.69e-09 m2/s | binary diffusion coefficient (301.29 K, x1 = 0): 5.79e-09 m2/s | binary diffusion coefficient (304.98 K, x1 = 0): 5.89e-09 m2/s | binary diffusion coefficient (306.86 K, x1 = 0): 5.98e-09 m2/s | binary diffusion coefficient (310.67 K, x1 = 0): 6.13e-09 m2/s | binary diffusion coefficient (312.41 K, x1 = 0): 6.3e-09 m2/s | binary diffusion coefficient (316.09 K, x1 = 0): 6.48e-09 m2/s | binary diffusion coefficient (319.27 K, x1 = 0): 6.62e-09 m2/s | binary diffusion coefficient (322.81 K, x1 = 0): 6.79e-09 m2/s | binary diffusion coefficient (325.36 K, x1 = 0): 6.94e-09 m2/s | binary diffusion coefficient (328.78 K, x1 = 0): 7.3e-09 m2/s | binary diffusion coefficient (332.63 K, x1 = 0): 7.59e-09 m2/s

COCCOCCOC [2,5,8-trioxanonane] + CCCCCCC
binary diffusion coefficient (276.64 K, x1 = 0): 9.42e-10 m2/s | binary diffusion coefficient (277.73 K, x1 = 0): 9.48e-10 m2/s | binary diffusion coefficient (281.59 K, x1 = 0): 9.51e-10 m2/s | binary diffusion coefficient (284.32 K, x1 = 0): 9.58e-10 m2/s | binary diffusion coefficient (287.28 K, x1 = 0): 9.76e-10 m2/s | binary diffusion coefficient (289.59 K, x1 = 0): 9.87e-10 m2/s | binary diffusion coefficient (292.83 K, x1 = 0): 1e-09 m2/s | binary diffusion coefficient (294.95 K, x1 = 0): 1.02e-09 m2/s | binary diffusion coefficient (296.37 K, x1 = 0): 1.05e-09 m2/s | binary diffusion coefficient (298.46 K, x1 = 0): 1.07e-09 m2/s | binary diffusion coefficient (301.29 K, x1 = 0): 1.08e-09 m2/s | binary diffusion coefficient (304.98 K, x1 = 0): 1.12e-09 m2/s | binary diffusion coefficient (306.86 K, x1 = 0): 1.14e-09 m2/s | binary diffusion coefficient (310.67 K, x1 = 0): 1.18e-09 m2/s | binary diffusion coefficient (312.41 K, x1 = 0): 1.23e-09 m2/s | binary diffusion coefficient (316.09 K, x1 = 0): 1.26e-09 m2/s | binary diffusion coefficient (319.27 K, x1 = 0): 1.31e-09 m2/s | binary diffusion coefficient (322.81 K, x1 = 0): 1.37e-09 m2/s | binary diffusion coefficient (325.36 K, x1 = 0): 1.43e-09 m2/s | binary diffusion coefficient (328.78 K, x1 = 0): 1.48e-09 m2/s | binary diffusion coefficient (332.63 K, x1 = 0): 1.53e-09 m2/s

CCCCCCC [heptane] + CCO
binary diffusion coefficient (276.64 K, x2 = 0): 7.57e-09 m2/s | binary diffusion coefficient (277.73 K, x2 = 0): 7.61e-09 m2/s | binary diffusion coefficient (281.59 K, x2 = 0): 7.64e-09 m2/s | binary diffusion coefficient (284.32 K, x2 = 0): 7.7e-09 m2/s | binary diffusion coefficient (287.28 K, x2 = 0): 7.75e-09 m2/s | binary diffusion coefficient (289.59 K, x2 = 0): 7.79e-09 m2/s | binary diffusion coefficient (292.83 K, x2 = 0): 7.84e-09 m2/s | binary diffusion coefficient (294.95 K, x2 = 0): 7.9e-09 m2/s | binary diffusion coefficient (296.37 K, x2 = 0): 7.94e-09 m2/s | binary diffusion coefficient (298.46 K, x2 = 0): 8.07e-09 m2/s | binary diffusion coefficient (301.29 K, x2 = 0): 8.19e-09 m2/s | binary diffusion coefficient (304.98 K, x2 = 0): 8.22e-09 m2/s | binary diffusion coefficient (306.86 K, x2 = 0): 8.37e-09 m2/s | binary diffusion coefficient (310.67 K, x2 = 0): 8.47e-09 m2/s | binary diffusion coefficient (312.41 K, x2 = 0): 8.58e-09 m2/s | binary diffusion coefficient (316.09 K, x2 = 0): 8.71e-09 m2/s | binary diffusion coefficient (319.27 K, x2 = 0): 8.91e-09 m2/s | binary diffusion coefficient (322.81 K, x2 = 0): 9.17e-09 m2/s | binary diffusion coefficient (325.36 K, x2 = 0): 9.22e-09 m2/s | binary diffusion coefficient (328.78 K, x2 = 0): 9.36e-09 m2/s | binary diffusion coefficient (332.63 K, x2 = 0): 9.5e-09 m2/s

[Cl-].[K+] [potassium chloride] + O
binary diffusion coefficient (298.15 K, x1 = 0): 1.86e-09 m2/s
